Results taken from patent publication US10882860B2, “Treatment of osteoarthritis” (Samumed, LLC, priority 2015, dated 2021).

Assays:
[1] = system: moderate-to-severe symptomatic knee OA subjects; assay: Phase 1 clinical study: efficacy (WOMAC, Physician Global Assessment, strict OARSI responders); type: in vivo, human; conditions: for decrease in median WOMAC total score from baseline: FIG. 24B; for decrease in mean WOMAC total score [0-96] from baseline: FIG. 24A
Text: (§1) The study was a first-in-human, multicenter, 24-week, placebo-controlled, single-dose, dose-escalation safety study of a Wnt pathway inhibitor in subjects suffering from moderate to severe symptomatic knee OA. The sample size was 20 subjects (randomized 4:1, 16 active: 4 placebo) per dosing cohort. Inclusion criteria included: Age, 50-75 years; Western Ontario and McMaster Universities Arthritis Index (WOMAC) Total score, 36-72 (out of 96); Kellgren-Lawrence grade, 2 or 3; and a willingness to omit pain medication for 24 hours prior to pain assessments. Exclusion criteria included: BMI>40; and treatment with IA steroids within 2 months or HA derivatives within 6 months prior to injection. A full list of the inclusion and exclusion criteria for this study can be found on clinicaltrials.gov (NCT02095548).
The dosing sequence included suspension compositions of either 0.03 mg, 0.07 mg, or 0.23 mg of the compound of Formula (I) (Form 1) per 2 mL injection in a vehicle containing 0.5% carboxymethylcellulose sodium and 0.05% polysorbate 80 in pH 7.4 phosphate buffered saline. The placebo contained only the diluent of 0.5% carboxymethylcellulose sodium and 0.05% polysorbate 80 in pH 7.4 phosphate buffered saline. The subjects were given a single, intra-articular injection in the target knee on Treatment Day 1 and participated in a follow-up period of 24 weeks.
Safety, pharmacokinetics (PK), biomarker, and efficacy data were collected at baseline and during the 24-week follow-up period. Safety data included adverse events (AEs), concomitant medications, clinical laboratory sampling, medical history, vital signs, ECGs, hip bone density (DXA) analysis, qCT of the target knee, and evaluation of bone edema via MM. For PK data, samples were collected 0, 4, and 24 hours post dose, and at Weeks 4 and 12. Biomarker data included data for procollagen type 1 N-propeptide (P1NP), beta C-terminal telopeptide of type 1 collagen (βCTX), and cartilage oligomeric matrix protein (COMP). Efficacy data included measurements of WOMAC Total score, WOMAC Function and Pain subscores, pain VAS, Physician Global Assessment of Disease Activity, MM, and radiographs. Efficacy assessments were used to determine the percentage of OMERACT-OARSI “strict” responders. Exploratory analyses of efficacy outcomes were conducted using a baseline-adjusted repeated measures analysis of covariance (ANCOVA) in the Intention-to-Treat (ITT) population. The sponsor was unblinded after Week 12 for each cohort; site investigators remained blinded. All AEs reported in this study were […]. Investigator opinion regarding whether AEs were related to the compound of Formula (I) was also collected for informational purposes.
Strict responders were classified by having either a WOMAC Function subscore improvement of ≥50% with a corresponding Function score improvement of ≥20 points (scaled to [0-100]), or a WOMAC Pain subscore improvement of ≥50% with a corresponding Pain score improvement of ≥20 points (scaled to [0-100]).

[2] = design: species or system beagle dogs; conditions: dog, in vivo
Procedure: The local toxicology of Form 1 of the compound of Formula (I) in dogs was studied. The compound of Formula (I) (Form 1) was administered via single or multiple (9 times) intra-articular (IA) injections as a suspension composition in beagle dogs to evaluate local toxicity.
After IA injection, the right stifle joint was histologically evaluated for inflammation, cartilage health, bone density, etc. Toxicology was evaluated immediately after a single or multiple (3 or 9 once-monthly) IA injections.
The NOAEL for the compound of Formula (I) in this study was considered to be 116 μg/knee.

nitric oxide release = assay: Immunosuppression in chondrocytes: nitric oxide (Greiss reagent); type: cell-based, human; conditions: cells stimulated with TNF-α and oncostatin M or IL-1β; 72 hours; FIG. 20B
Procedure: Human MSCs were plated in 10 cm dishes in chondrogenic induction medium (Lonza; DMEM, dexamethasone, ascorbate, insulin-transferrin-selenium [ITS supplement], gentamycin-amphotericin [GA-1000], sodium pyruvate, proline and L-glutamine) and treated with TGF-β3 (20 μg/mL) to induce chondrogenic differentiation. Cells from 4 dishes were pooled and re-plated in 24-well plates in Chondrogenic Induction Medium and treated with various concentrations of the compound of Formula (I). 4 hours later, cells were stimulated by adding TNF-α (20 μg/mL)+Oncostatin M ([…]) or IL-1β (10 μg/mL) and incubated at 37° C., 5% CO2 for 72 hours. Chondrocytes were digested with papain (Sigma). GAG content was measured using the dimethylmethylene blue (DMMB) kit (Chondrex). Briefly, the digested chondrocytes were mixed with DMMB in formate buffer and absorbance at 535 nm was measured using Cytation 3 (Biotek). Nitric oxide was measured using Greiss reagent (Promega) according to manufacturer's protocol.

[3] = Phase 1 clinical study: pharmacokinetics; type: in vivo; conditions: human; cohorts 1, 2, and 3 (0.03, 0.07, 0.23 mg); 0, 4, 24 hours, Weeks 4 and 12; BQL
Text: as §1
The dosing sequence included suspension compositions of either 0.03 mg, 0.07 mg, or 0.23 mg of the compound of Formula (I) (Form 1) per 2 mL injection in a vehicle containing 0.5% carboxymethylcellulose sodium and 0.05% polysorbate 80 in pH 7.4 phosphate buffered saline. […]
PK samples were collected at 0, 4, and 24 hours post dose, and at Weeks 4 and 12. All subjects in cohorts 1, 2, and 3 had levels below limits of quantitation (BQL<0.100 ng/mL) at all recorded time points.

CC(C)CC(=O)Nc1cncc(-c2ccc3[nH]nc(-c4nc5c(-c6cccc(F)c6)cncc5[nH]4)c3c2)c1 [compound of Formula (I)]
WOMAC function [0-68], Week 12 Actual [Mean (SD)] ([1]; 0.03 mg cohort, N 17): 20.3 | WOMAC function [0-68], Week 12 Change from baseline [Mean (SD)] ([1]; 0.03 mg cohort, N 17): −18.4 | WOMAC pain [0-20], Week 12 Actual [Mean (SD)] ([1]; 0.03 mg cohort, N 17): 6.3 | WOMAC pain [0-20], Week 12 Change from baseline [Mean (SD)] ([1]; 0.03 mg cohort, N 17): −4.4 | decrease in median WOMAC total score from baseline ([1]; 0.03 mg cohort): greater than 25 | median decrease in physician global assessment from baseline ([1]; 0.03 mg cohort, FIG. 25B): about 48 | WOMAC function [0-68], Week 12 Actual [Mean (SD)] ([1]; 0.07 mg cohort, N 16): 18.4 | WOMAC function [0-68], Week 12 Change from baseline [Mean (SD)] ([1]; 0.07 mg cohort, N 16): −19.2 | WOMAC pain [0-20], Week 12 Actual [Mean (SD)] ([1]; 0.07 mg cohort, N 16): 5.3 | WOMAC pain [0-20], Week 12 Change from baseline [Mean (SD)] ([1]; 0.07 mg cohort, N 16): −5.6 | decrease in mean WOMAC total score [0-96] from baseline ([1]; 0.07 mg cohort): about 27 | decrease in median WOMAC total score from baseline ([1]; 0.07 mg cohort): greater than 25 | odds ratio (OR) of strict OARSI response vs placebo ([1]; 0.07 mg cohort, Week 12, P=0.081): 4.2 | percentage of strict OARSI responders ([1]; 0.07 mg cohort, Week 12, placebo 42%): 75% | WOMAC function [0-68], Week 12 Actual [Mean (SD)] ([1]; 0.23 mg cohort, N 16): 22.6 | WOMAC function [0-68], Week 12 Change from baseline [Mean (SD)] ([1]; 0.23 mg cohort, N 16): −17.8 | WOMAC pain [0-20], Week 12 Actual [Mean (SD)] ([1]; 0.23 mg cohort, N 16): 5.8 | WOMAC pain [0-20], Week 12 Change from baseline [Mean (SD)] ([1]; 0.23 mg cohort, N 16): −5.7 | decrease in mean WOMAC total score [0-96] from baseline ([1]; all cohorts (0.03, 0.07, 0.23 mg)): ≥ 23 | decrease in mean physician global assessment score [0-100] from baseline ([1]; all cohorts (0.03, 0.07, 0.23 mg), FIG. 25A): ≥ 30 | NOAEL [2]: 116 μg/knee | release of nitric oxide (nitric oxide release): reduced | plasma level (PK samples) [3]: < 0.100 ng/mL
